pIC50: −log10 of the molar value.
Tested on: MDA-MB-436 cells
Assay: Assay on inhibitory activity for MDA-MB-436 cell proliferation (CCK-8)
Format: cell-based
Settings: 168 h of incubation, CCK-8, absorbance at 450 nm
Experimental: MDA-MB-436 cells in a good growth state were collected into a centrifuge tube, adjusted to a cell density of 2 × 10^4 cells/mL using a complete medium (DMEM high glucose + 10% FBS + 1× insulin-transferrin-selenium (ITS-G) + 16 µg/mL reduced glutathione), and seeded in a 96-well plate (100 µL/well), and the plate was incubated overnight in a cell incubator. Compounds were added using a pipettor, such that the final concentrations of the compounds were 400 nM-0.02 nM. The wells were set in duplicate, and a control well was set. After 168 h of incubation in the cell incubator, the assay reagent CCK-8 (manufacturer: Dojindo Laboratories, Beijing; 10 µL/well) was added. After 1.5 h of incubation in the cell incubator, the absorbance values were measured at 450 nm on a PerkinElmer Envision microplate reader. […] Inhibitory activity results for DA-MB-436 cell proliferation of compounds

Structure (SMILES)	pIC50 (Homo sapiens, MDA-MB-436)	pIC50
CNC(=O)n1cc2c(n1)CN(C1CN(Cc3ccc4cc(C(F)(F)F)c(=O)[nH]c4c3)[C@@H]1C)C2 (single isomer, unassigned) [Compound 35]	≥ 7.30	–
CNC(=O)n1cc2c(n1)CN(C1CN(Cc3ccc4cc(C5CC5)c(=O)[nH]c4c3)[C@@H]1C)C2 (single isomer, unassigned) [Compound 40]	≥ 7.30	–
CCc1cc2ccc(CN3CC(N4Cc5cn(C(=O)NC)nc5C4)C3)cc2[nH]c1=O [Compound 1]	–	≥ 7.30
CNC(=O)n1cc2c(n1)CN(C1CN(Cc3ccc4cc(C5CC5)c(=O)[nH]c4c3)C1)C2 [Compound 2]	≥ 7.30	–
CCc1cc2ccc(CN3CC(N4Cc5cn(C(=O)NC6CC6)nc5C4)C3)cc2[nH]c1=O [Compound 4]	–	≥ 7.30
CCc1cc2ncc(CN3CC(N4Cc5cn(C(=O)NC6CC6)nc5C4)C3)cc2[nH]c1=O [Compound 5]	–	≥ 7.30
CCc1cc2ncc(CN3CC(N4Cc5nc(C(=O)NC)sc5C4)C3)cc2[nH]c1=O [Compound 7]	–	≥ 7.30
CCc1cc2ccc(CN3CC(N4Cc5cn(C(=O)NC(C)C)nc5C4)C3)cc2[nH]c1=O [Compound 9]	–	≥ 7.30
CCc1cc2ncc(CN3CC(N4Cc5cn(C(=O)NC)nc5C4)C3)cc2[nH]c1=O [Compound 10]	–	≥ 7.30
O=C(NC1CC1)n1cc2c(n1)CN(C1CN(Cc3ccc4cc(C5CC5)c(=O)[nH]c4c3)C1)C2 [Compound 11]	–	≥ 7.30
CCNC(=O)n1cc2c(n1)CN(C1CN(Cc3ccc4cc(CC)c(=O)[nH]c4c3)C1)C2 [Compound 13]	–	≥ 7.30
CNC(=O)n1cc2c(n1)CN(C1CN(Cc3ccc4c5c(c(=O)[nH]c4c3)CCC5)C1)C2 [Compound 15]	–	≥ 7.30
CCc1cc2c(F)cc(CN3CC(N4Cc5cn(C(=O)NC)nc5C4)C3)cc2[nH]c1=O [Compound 16]	–	≥ 7.30
CCc1cc2ccc(CN3CC(N4Cc5cn(C(=O)N[C@@H]6CCOC6)nc5C4)C3)cc2[nH]c1=O [Compound 17]	≥ 7.30	–
CCc1cc2cc(F)c(CN3CC(N4Cc5cn(C(=O)NC)nc5C4)C3)cc2[nH]c1=O [Compound 18]	≥ 7.30	–
CCc1cc2ccc(CN3CC(N4Cc5nc(C(=O)NC)sc5C4)C3)cc2[nH]c1=O [Compound 19]	≥ 7.30	–
CCc1cc2c(F)cc(CN3CC(N4Cc5cn(C(=O)NC6CC6)nc5C4)C3)cc2[nH]c1=O [Compound 20]	≥ 7.30	–
CCc1cc2c(F)cc(CN3CC(N4Cc5nc(C(=O)NC)sc5C4)C3)cc2[nH]c1=O [Compound 21]	≥ 7.30	–
CNC(=O)n1cc2c(n1)CN(C1CN(Cc3ccc4cc(C)c(=O)[nH]c4c3)C1)C2 [Compound 22]	≥ 7.30	–
Cc1cc2ccc(CN3CC(N4Cc5cn(C(=O)NC6CC6)nc5C4)C3)cc2[nH]c1=O [Compound 23]	≥ 7.30	–

Reference: patent EP4803520A1, “COMPOUND CONTAINING FUSED BICYCLIC RING, PHARMACEUTICAL COMPOSITION, AND USE THEREOF” (priority 2023, dated 2025)
